Reference: ChEMBL document CHEMBL6120977, “Structure-Affinity-Pharmacokinetics Relationships of Novel 18F-Labeled 1,4-Diazepane Derivatives for Orexin 1 Receptor Imaging” (J Med Chem, 2024)
Each block holds one compound with its values, some of them ahead of it.

How the values were obtained:
[1] = Biodistribution in male ddY mouse blood administered intravenously and measured at 2 mins postinjection by gamma counter analysis; assay type: ADME, organism-based; details: in vivo, iv
[2] = Biodistribution in male ddY mouse blood administered intravenously and measured at 10 mins postinjection by gamma counter analysis; assay type: ADME, organism-based; details: in vivo, iv
[3] = Biodistribution in male ddY mouse blood administered intravenously and measured at 30 mins postinjection by gamma counter analysis; assay type: ADME, organism-based; details: in vivo, iv, 0.5 h
[4] = Biodistribution in male ddY mouse blood administered intravenously and measured at 60 mins postinjection by gamma counter analysis; assay type: ADME, organism-based; details: in vivo, iv, 1 h
[5] = Biodistribution in male ddY mouse spleen administered intravenously and measured at 2 mins postinjection by gamma counter analysis; assay type: ADME, organism-based; details: in vivo, iv
[6] = Biodistribution in male ddY mouse spleen administered intravenously and measured at 10 mins postinjection by gamma counter analysis; assay type: ADME, organism-based; details: in vivo, iv
[7] = Biodistribution in male ddY mouse spleen administered intravenously and measured at 30 mins postinjection by gamma counter analysis; assay type: ADME, organism-based; details: in vivo, iv, 0.5 h
[8] = Biodistribution in male ddY mouse spleen administered intravenously and measured at 60 mins postinjection by gamma counter analysis; assay type: ADME, organism-based; details: in vivo, iv, 1 h
[9] = Biodistribution in male ddY mouse pancreas administered intravenously and measured at 2 mins postinjection by gamma counter analysis; assay type: ADME, organism-based; details: in vivo, iv
[10] = Biodistribution in male ddY mouse pancreas administered intravenously and measured at 10 mins postinjection by gamma counter analysis; assay type: ADME, organism-based; details: in vivo, iv
[11] = Biodistribution in male ddY mouse pancreas administered intravenously and measured at 30 mins postinjection by gamma counter analysis; assay type: ADME, organism-based; details: in vivo, iv, 0.5 h
[12] = Biodistribution in male ddY mouse pancreas administered intravenously and measured at 60 mins postinjection by gamma counter analysis; assay type: ADME, organism-based; details: in vivo, iv, 1 h
[13] = Biodistribution in male ddY mouse stomach administered intravenously and measured per organ at 2 mins postinjection by gamma counter analysis; assay type: ADME, organism-based; details: in vivo, iv
[14] = Biodistribution in male ddY mouse stomach administered intravenously and measured per organ at 10 mins postinjection by gamma counter analysis; assay type: ADME, organism-based; details: in vivo, iv
[15] = Biodistribution in male ddY mouse stomach administered intravenously and measured per organ at 30 mins postinjection by gamma counter analysis; assay type: ADME, organism-based; details: in vivo, iv, 0.5 h
[16] = Biodistribution in male ddY mouse stomach administered intravenously and measured per organ at 60 mins postinjection by gamma counter analysis; assay type: ADME, organism-based; details: in vivo, iv, 1 h
[17] = Biodistribution in male ddY mouse intestine administered intravenously and measured at 2 mins postinjection by gamma counter analysis; assay type: ADME, organism-based; details: in vivo, iv
[18] = Biodistribution in male ddY mouse intestine administered intravenously and measured at 10 mins postinjection by gamma counter analysis; assay type: ADME, organism-based; details: in vivo, iv
[19] = Biodistribution in male ddY mouse intestine administered intravenously and measured at 30 mins postinjection by gamma counter analysis; assay type: ADME, organism-based; details: in vivo, iv, 0.5 h
[20] = Biodistribution in male ddY mouse intestine administered intravenously and measured at 60 mins postinjection by gamma counter analysis; assay type: ADME, organism-based; details: in vivo, iv, 1 h
[21] = Biodistribution in male ddY mouse kidney administered intravenously and measured at 2 mins postinjection by gamma counter analysis; assay type: ADME, organism-based; details: in vivo, iv
[22] = Biodistribution in male ddY mouse kidney administered intravenously and measured at 10 mins postinjection by gamma counter analysis; assay type: ADME, organism-based; details: in vivo, iv
[23] = Biodistribution in male ddY mouse kidney administered intravenously and measured at 30 mins postinjection by gamma counter analysis; assay type: ADME, organism-based; details: in vivo, iv, 0.5 h
[24] = Biodistribution in male ddY mouse kidney administered intravenously and measured at 60 mins postinjection by gamma counter analysis; assay type: ADME, organism-based; details: in vivo, iv, 1 h
[25] = Biodistribution in male ddY mouse liver administered intravenously and measured at 2 mins postinjection by gamma counter analysis; assay type: ADME, organism-based; details: in vivo, iv
[26] = Biodistribution in male ddY mouse liver administered intravenously and measured at 10 mins postinjection by gamma counter analysis; assay type: ADME, organism-based; details: in vivo, iv
[27] = Biodistribution in male ddY mouse liver administered intravenously and measured at 30 mins postinjection by gamma counter analysis; assay type: ADME, organism-based; details: in vivo, iv, 0.5 h
[28] = Biodistribution in male ddY mouse liver administered intravenously and measured at 60 mins postinjection by gamma counter analysis; assay type: ADME, organism-based; details: in vivo, iv, 1 h
[29] = Biodistribution in male ddY mouse heart administered intravenously and measured at 2 mins postinjection by gamma counter analysis; assay type: ADME, organism-based; details: in vivo, iv
[30] = Biodistribution in male ddY mouse heart administered intravenously and measured at 10 mins postinjection by gamma counter analysis; assay type: ADME, organism-based; details: in vivo, iv
[31] = Biodistribution in male ddY mouse heart administered intravenously and measured at 30 mins postinjection by gamma counter analysis; assay type: ADME, organism-based; details: in vivo, iv, 0.5 h
[32] = Biodistribution in male ddY mouse heart administered intravenously and measured at 60 mins postinjection by gamma counter analysis; assay type: ADME, organism-based; details: in vivo, iv, 1 h
[33] = Biodistribution in male ddY mouse lung administered intravenously and measured at 2 mins postinjection by gamma counter analysis; assay type: ADME, organism-based; details: in vivo, iv
[34] = Biodistribution in male ddY mouse lung administered intravenously and measured at 10 mins postinjection by gamma counter analysis; assay type: ADME, organism-based; details: in vivo, iv
[35] = Biodistribution in male ddY mouse lung administered intravenously and measured at 30 mins postinjection by gamma counter analysis; assay type: ADME, organism-based; details: in vivo, iv, 0.5 h
[36] = Biodistribution in male ddY mouse lung administered intravenously and measured at 60 mins postinjection by gamma counter analysis; assay type: ADME, organism-based; details: in vivo, iv, 1 h
[37] = Biodistribution in male ddY mouse brain administered intravenously and measured at 2 mins postinjection by gamma counter analysis; assay type: ADME, organism-based; details: in vivo, iv
[38] = Biodistribution in male ddY mouse brain administered intravenously and measured at 10 mins postinjection by gamma counter analysis; assay type: ADME, organism-based; details: in vivo, iv
[39] = Biodistribution in male ddY mouse brain administered intravenously and measured at 30 mins postinjection by gamma counter analysis; assay type: ADME, organism-based; details: in vivo, iv, 0.5 h
[40] = Biodistribution in male ddY mouse brain administered intravenously and measured at 60 mins postinjection by gamma counter analysis; assay type: ADME, organism-based; details: in vivo, iv, 1 h
[41] = Biodistribution in male ddY mouse bone administered intravenously and measured at 2 mins postinjection by gamma counter analysis; assay type: ADME, organism-based, Bone element; details: in vivo, iv
[42] = Biodistribution in male ddY mouse bone administered intravenously and measured at 10 mins postinjection by gamma counter analysis; assay type: ADME, organism-based, Bone element; details: in vivo, iv
[43] = Biodistribution in male ddY mouse bone administered intravenously and measured at 30 mins postinjection by gamma counter analysis; assay type: ADME, organism-based, Bone element; details: in vivo, iv, 0.5 h
[44] = Biodistribution in male ddY mouse bone administered intravenously and measured at 60 mins postinjection by gamma counter analysis; assay type: ADME, organism-based, Bone element; details: in vivo, iv, 1 h
[45] = molecular target: T1, Orexin/Hypocretin receptor type 1 (Homo sapiens, UniProt O43613); test: Displacement of […]5IBOM from OX1R (unknown origin) transfected in CHO cells assessed as inhibition constant incubated for 1.5 hrs by automated gamma-counter analysis; assay type: cell-based
T1 sequence (O43613 whole entry): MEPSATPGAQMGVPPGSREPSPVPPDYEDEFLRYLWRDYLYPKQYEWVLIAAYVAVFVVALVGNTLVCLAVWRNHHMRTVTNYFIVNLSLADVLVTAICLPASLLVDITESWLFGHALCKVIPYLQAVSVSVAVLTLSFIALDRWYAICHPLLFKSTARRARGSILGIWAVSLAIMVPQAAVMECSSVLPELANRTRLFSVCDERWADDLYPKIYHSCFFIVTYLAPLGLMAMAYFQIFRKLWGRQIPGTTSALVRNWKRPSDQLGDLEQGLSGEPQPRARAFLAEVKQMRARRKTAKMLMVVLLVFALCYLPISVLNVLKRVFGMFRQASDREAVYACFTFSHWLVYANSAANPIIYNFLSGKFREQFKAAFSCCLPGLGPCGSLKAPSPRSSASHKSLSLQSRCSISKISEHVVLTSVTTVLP

Orexin receptor type 2 = molecular target: T2, Orexin receptor type 2 (Homo sapiens, UniProt O43614); test: Displacement of […]5IBOM from OX2R (unknown origin) transfected in CHO cells assessed as inhibition constant incubated for 1.5 hrs by automated gamma-counter analysis; assay type: cell-based
T2 sequence (O43614 whole entry): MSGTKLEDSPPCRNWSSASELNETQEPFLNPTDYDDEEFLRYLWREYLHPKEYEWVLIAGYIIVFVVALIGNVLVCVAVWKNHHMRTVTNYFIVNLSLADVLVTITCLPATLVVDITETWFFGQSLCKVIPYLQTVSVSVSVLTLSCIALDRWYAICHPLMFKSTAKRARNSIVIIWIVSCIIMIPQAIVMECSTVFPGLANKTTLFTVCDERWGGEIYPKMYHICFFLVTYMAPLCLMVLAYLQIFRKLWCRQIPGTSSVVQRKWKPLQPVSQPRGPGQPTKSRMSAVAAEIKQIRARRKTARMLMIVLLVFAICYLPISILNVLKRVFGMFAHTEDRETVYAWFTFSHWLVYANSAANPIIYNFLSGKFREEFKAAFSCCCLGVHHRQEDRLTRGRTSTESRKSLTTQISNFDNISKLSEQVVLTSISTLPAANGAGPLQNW

[46] = Selectivity ratio of Ki for OX2R (unknown origin) transfected in CHO cells to Ki for OX1R (unknown origin) transfected in CHO cells; assay type: cell-based

Compound: Cc1ccc(-n2nccn2)c(C(=O)N2CCCN(c3nc4ccc([18F])cc4s3)C[C@@H]2C)c1
Drug uptake [1]: 4.44 % ID/g | Drug uptake [2]: 2.91 % ID/g | Drug uptake [3]: 1.44 % ID/g | Drug uptake [4]: 1.46 % ID/g | Drug uptake [5]: 2.92 % ID/g | Drug uptake [6]: 2.38 % ID/g | Drug uptake [7]: 0.9 % ID/g | Drug uptake [8]: 0.42 % ID/g | Drug uptake [9]: 5.89 % ID/g | Drug uptake [10]: 2.95 % ID/g | Drug uptake [11]: 0.67 % ID/g | Drug uptake [12]: 0.26 % ID/g | Drug uptake [13]: 1.15 %ID | Drug uptake [14]: 1.65 %ID | Drug uptake [15]: 1.35 %ID | Drug uptake [16]: 0.87 %ID | Drug uptake [17]: 3.33 % ID/g | Drug uptake [18]: 6.23 % ID/g | Drug uptake [19]: 11.8 % ID/g | Drug uptake [20]: 16.3 % ID/g | Drug uptake [21]: 10.3 % ID/g | Drug uptake [22]: 5.23 % ID/g | Drug uptake [23]: 1.89 % ID/g | Drug uptake [24]: 0.81 % ID/g | Drug uptake [25]: 13.3 % ID/g | Drug uptake [26]: 26.9 % ID/g | Drug uptake [27]: 14.7 % ID/g | Drug uptake [28]: 7.53 % ID/g | Drug uptake [29]: 7.6 % ID/g | Drug uptake [30]: 3.11 % ID/g | Drug uptake [31]: 1.23 % ID/g | Drug uptake [32]: 0.43 % ID/g | Drug uptake [33]: 6.58 % ID/g | Drug uptake [34]: 3.43 % ID/g | Drug uptake [35]: 1.2 % ID/g | Drug uptake [36]: 0.48 % ID/g | Drug uptake [37]: 2.42 % ID/g | Drug uptake [38]: 0.98 % ID/g | Drug uptake [39]: 0.22 % ID/g | Drug uptake [40]: 0.11 % ID/g | Drug uptake [41]: 3.11 % ID/g | Drug uptake [42]: 4.94 % ID/g | Drug uptake [43]: 13.2 % ID/g | Drug uptake [44]: 16 % ID/g

Compound: C[C@H]1CN(c2nc3ccc(F)cc3s2)CCCN1C(=O)c1ccccc1-n1nccn1
Ki [45]: 0.64 nM | Ki (Orexin receptor type 2): 5.17 nM | Ratio Ki [46]: 8.08

Compound: C[C@H]1CN(c2nc3ccc(F)cc3s2)CCCN1C(=O)c1cc(C(F)(F)F)ccc1-n1nccn1
Ki [45]: 6.67 nM | Ki (Orexin receptor type 2): 19 nM | Ratio Ki [46]: 2.85

Compound: Cc1ccc2nc(N3CCCN(C(=O)c4cc(F)ccc4-n4nccn4)[C@@H](C)C3)sc2c1
Ki [45]: 7.46 nM | Ki (Orexin receptor type 2): 26.1 nM | Ratio Ki [46]: 3.5

Second part, led by results:

Ki [45]: 1.14 nM | Ki (Orexin receptor type 2): 12.8 nM
Compound: Cc1ccc(-n2nccn2)c(C(=O)N2CCCN(c3nc4cc(F)ccc4s3)C[C@@H]2C)c1
Ratio Ki [46]: 11.3

Ki [45]: 2.35 nM | Ki (Orexin receptor type 2): 8.64 nM
Compound: Cc1ccc(-n2nccn2)c(C(=O)N2CCCN(c3nc4cc(F)ccc4o3)C[C@@H]2C)c1
Ratio Ki [46]: 3.68
